Assay [1] concerns the target T1, Full length DGKζ (in-house protein M1-V929) (Homo sapiens, UniProt Q13574).
T1 construct: His (N); TEV cleavage site (N); made in house; host or cells: Sf9 insect cells (baculovirus, Bac-to-Bac)
Put plainly: Biochemical DGK IC50 assay (ADP-Glo, lipid micelle substrate), DGKζ. Particulars: 0.5 nM enzyme, 140 μM ATP, 80 μM DAG, 1 hour preincubation, 1 hour reaction, room temperature, read-out: IC50s for DGKζ. Put shortly:
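In-house full-length human DGKζ, baculovirus-expressed in Sf9 cells, was assayed with a DAG/PS lipid micelle substrate at room temperature. Buffer was 50 mM HEPES, 10 mM MgCl2, 0.01% BSA, 0.1 mM Na3VO4, 0.005% Tween-20, 0.01 mM CaCl2, with final compound 1.55˜10000 nM or 23.3˜150000 nM.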
In general terms: ADP-Glo first removes unused ATP, then detects ADP through luciferase.

In assay [2] the target is T2, Full length DGKα (D21-10BG, SignalChem) (Homo sapiens, UniProt P23743).
T2 construct: Full length DGKα (D21-10BG, SignalChem); purchased SignalChem D21-10BG
T2 sequence (P23743 whole entry): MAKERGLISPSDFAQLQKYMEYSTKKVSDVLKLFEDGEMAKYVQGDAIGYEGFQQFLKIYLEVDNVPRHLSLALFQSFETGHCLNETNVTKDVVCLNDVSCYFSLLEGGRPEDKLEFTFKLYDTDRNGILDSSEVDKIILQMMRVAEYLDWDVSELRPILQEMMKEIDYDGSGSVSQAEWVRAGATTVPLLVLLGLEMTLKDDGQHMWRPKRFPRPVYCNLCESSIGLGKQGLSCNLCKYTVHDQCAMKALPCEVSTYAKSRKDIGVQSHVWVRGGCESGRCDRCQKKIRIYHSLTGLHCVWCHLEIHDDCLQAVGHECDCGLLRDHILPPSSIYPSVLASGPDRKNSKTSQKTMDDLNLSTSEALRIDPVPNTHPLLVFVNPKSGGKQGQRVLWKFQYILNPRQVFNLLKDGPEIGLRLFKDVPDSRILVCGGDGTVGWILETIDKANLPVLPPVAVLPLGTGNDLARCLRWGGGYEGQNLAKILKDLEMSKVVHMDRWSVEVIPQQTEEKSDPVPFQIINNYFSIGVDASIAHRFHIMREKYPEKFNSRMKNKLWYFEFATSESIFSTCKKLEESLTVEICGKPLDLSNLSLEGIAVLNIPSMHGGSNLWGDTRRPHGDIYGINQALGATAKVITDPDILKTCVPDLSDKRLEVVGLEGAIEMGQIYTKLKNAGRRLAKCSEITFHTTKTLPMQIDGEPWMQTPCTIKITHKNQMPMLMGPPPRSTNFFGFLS
Put plainly: Biochemical DGK IC50 assay (ADP-Glo, lipid micelle substrate), DGKα. To be noted: 7.5 nM enzyme, 140 μM ATP, 80 μM DAG, 1 hour preincubation, 1 hour reaction, room temperature, read-out: IC50s for DGKα. In short, it runs like this: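 Full-length enzyme was assayed by ADP-Glo on DAG/PS lipid micelles at room temperature in HEPES/MgCl2/CaCl2 buffer with BSA, Na3VO4 and Tween-20, using a 1 h reaction and luminescence read-out.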

Where only a bound is given, the exact number is not on record here.

T1 sequence (Q13574 1-929 isoform Q13574-4): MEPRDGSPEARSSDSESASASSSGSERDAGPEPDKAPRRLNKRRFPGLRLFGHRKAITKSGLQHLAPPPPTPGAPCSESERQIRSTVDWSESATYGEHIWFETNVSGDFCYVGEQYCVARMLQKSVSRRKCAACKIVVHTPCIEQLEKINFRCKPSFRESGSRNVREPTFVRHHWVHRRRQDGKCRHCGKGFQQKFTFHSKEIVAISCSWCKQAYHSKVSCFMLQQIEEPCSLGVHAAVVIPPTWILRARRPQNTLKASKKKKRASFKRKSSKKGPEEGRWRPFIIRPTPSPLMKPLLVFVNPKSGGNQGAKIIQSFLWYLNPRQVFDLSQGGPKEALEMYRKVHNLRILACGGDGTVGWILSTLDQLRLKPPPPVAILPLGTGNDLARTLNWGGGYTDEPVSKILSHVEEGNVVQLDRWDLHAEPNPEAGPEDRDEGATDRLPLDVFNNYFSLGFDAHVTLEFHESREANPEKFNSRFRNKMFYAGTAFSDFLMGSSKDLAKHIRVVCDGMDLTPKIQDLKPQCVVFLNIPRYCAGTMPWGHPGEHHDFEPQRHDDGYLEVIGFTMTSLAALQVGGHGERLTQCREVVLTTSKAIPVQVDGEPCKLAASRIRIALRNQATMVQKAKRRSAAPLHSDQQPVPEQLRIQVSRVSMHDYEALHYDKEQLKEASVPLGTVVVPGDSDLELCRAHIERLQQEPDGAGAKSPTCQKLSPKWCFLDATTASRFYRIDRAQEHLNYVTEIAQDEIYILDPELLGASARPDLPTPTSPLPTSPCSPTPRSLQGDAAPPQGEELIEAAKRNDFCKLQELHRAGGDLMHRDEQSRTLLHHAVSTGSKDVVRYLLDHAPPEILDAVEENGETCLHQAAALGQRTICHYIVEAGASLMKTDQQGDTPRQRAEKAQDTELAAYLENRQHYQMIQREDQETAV

Consider `CC(c1ccc2nccnc2c1)N1C[C@H](C)N(c2cc(=O)n(C)n3cc(CS(C)(=O)=O)nc23)C[C@H]1C` (stereo partly drawn) [Compound A11, 8-((2S,5R)-2,5-dimethyl-4-(1-(quinoxalin-6-yl)ethyl)piperazin-1-yl)-5-methyl-2-((methylsulfonyl)methyl)imidazo[1,2-b]pyridazin-6(5H)-one], for which the IC50 in assay [1] and in assay [2] was over 10000 nM throughout.

Turning to `CC[C@@H]1CN(c2cc(=O)n(C)n3cc(C=NOC)nc23)[C@@H](C)CN1C(C)c1ccc2nccnc2c1` (single isomer, unassigned) [Compound A9b], the IC50 came to 313 nM in assay [1] and 74 nM in assay [2].

Take `CC[C@@H]1CN(c2c(C#N)c(=O)n(C)n3cc(CC#N)nc23)[C@@H](C)CN1C(C)c1ccc2nc(C)sc2n1` (single isomer, unassigned) [Compound A113b]: the figures for the IC50 in assay [1] and in assay [2] were 2910 nM and 651 nM, respectively.

Turning to `CC[C@H]1CN(C(C)c2ccc3nc(C)sc3c2)[C@H](CC)CN1c1cc(=O)n(C)n2cc(CC#N)nc12` (single isomer, unassigned) [Compound A56a], the results for the IC50 in assay [1] and in assay [2] were 11 nM and 87 nM, respectively.

Take `CC[C@@H]1CN(c2cc(=O)n(C)n3cc(COC)nc23)[C@@H](C)CN1C(C)c1ccc(C(F)(F)F)cc1F` (single isomer, unassigned) [Compound A16b]: the results for the IC50 in assay [1] and in assay [2] were over 10000 nM and 8460 nM, respectively.

On to `CC[C@H]1CN(C(C)c2ccc3nc(C)sc3n2)[C@H](CC)CN1c1c(F)c(=O)n(C)n2cc(CC#N)nc12` (single isomer, unassigned) [Compound A82a], for which the IC50 in assay [1] worked out at 15 nM; in assay [2], 26 nM.

As for `CC[C@H]1CN(C(C)c2ccc3ncsc3c2F)[C@H](CC)CN1c1cc(=O)n(C)n2cc(CC#N)nc12` (single isomer, unassigned) [Compound A62b], the IC50 in assay [1] was found to be 1210 nM; in assay [2] it was 2390 nM.

In the case of `CC[C@H]1CN(C(C)c2ccc3nc(C)sc3c2)[C@H](CC)CN1c1c(C#N)c(=O)n(C)n2cc(CC#N)nc12` (stereo partly drawn) [Compound A111, 2-(cyanomethyl)-8-((2S,5R)-2,5-diethyl-4-(1-(2-methylbenzo[d]thiazol-6-yl)ethyl)piperazin-1-yl)-5-methyl-6-oxo-5,6-dihydroimidazo[1,2-b]pyridazine-7-carbonitrile], the IC50 was 132 nM in assay [1] and 575 nM in assay [2].

`CC[C@@H]1CN(c2cc(=O)n(C)n3cc(CC#N)nc23)[C@@H](C)CN1C(C)c1ccc2cc(C)sc2n1` (stereo partly drawn) [Compound A87, 2-(8-((2S,5R)-5-ethyl-2-methyl-4-(1-(2-methylthieno[2,3-b]pyridin-6-yl)ethyl)piperazin-1-yl)-5-methyl-6-oxo-5,6-dihydroimidazo[1,2-b]pyridazin-2-yl)acetonitrile]: the IC50 in assay [1] came out at 11 nM; in assay [2], 112 nM.

Turning to `CC[C@H]1CN(C(C)c2ccc3nc(C)sc3c2)[C@H](CC)CN1c1cc(=O)n(C)n2cc(CC#N)nc12` (single isomer, unassigned) [Compound A56b], the IC50 in assay [1] was 638 nM; in assay [2], 659 nM.

As for `Cc1cnc2ccc(C(C)N3C[C@H](C)N(c4cc(=O)n(C)n5cc(CC#N)nc45)C[C@H]3C)cc2n1` (single isomer, unassigned) [Compound A2a], the IC50 was found to be 7400 nM in assay [1] and 26800 nM in assay [2].

For `COC(C)c1cn2c(n1)c(N1C[C@@H](C)N(C(C)c3ccc4nccnc4c3)C[C@@H]1C)cc(=O)n2C` (stereo partly drawn) [Compound A5, 8-((2S,5R)-2,5-dimethyl-4-(1-(quinoxalin-6-yl)ethyl)piperazin-1-yl)-2-(1-methoxyethyl)-5-methylimidazo[1,2-b]pyridazin-6(5H)-one], the IC50 stood at 11000 nM in assay [1] and 22000 nM in assay [2].

On to `CC[C@@H]1CN(c2cc(=O)n(C)n3cc(CC#N)nc23)[C@@H](C)CN1C(C)c1cc2sc(C)nc2cc1F` (single isomer, unassigned) [Compound A60a], for which the IC50 in assay [1] turned out to be 189 nM; in assay [2], 826 nM.

For `CC[C@H]1CN(C(C)c2ccc(C3CC3)nc2)[C@H](CC)CN1c1cc(=O)n(C)n2cc(CC#N)nc12` (single isomer, unassigned) [Compound A37a], the IC50 worked out at 20 nM in assay [1] and 44 nM in assay [2].

Take `CC[C@@H]1CN(c2cc(=O)n(C)n3cc(CC#N)nc23)[C@@H](COC)CN1C(C)c1ccc2nc(C)sc2n1` (single isomer, unassigned) [Compound A108a]: the IC50 in assay [1] is over 10000 nM; in assay [2], 6400 nM.

As to `CC[C@@H]1CN(c2cc(=O)n(C)n3cc(CC#N)nc23)[C@@H](C)CN1C(C)c1ccc2nc(C)sc2n1` (single isomer, unassigned) [Compound A84a], the IC50 in assay [1] came to 52 nM; in assay [2], 169 nM.

For the compound `CC[C@@H]1CN(c2cc(=O)n(C)n3cc(CC#N)nc23)[C@@H](C)CN1C(C)c1ccc2ccsc2n1` (stereo partly drawn) [Compound A86, 2-(8-((2S,5R)-5-ethyl-2-methyl-4-(1-(thieno[2,3-b]pyridin-6-yl)ethyl)piperazin-1-yl)-5-methyl-6-oxo-5,6-dihydroimidazo[1,2-b]pyridazin-2-yl)acetonitrile], the values for the IC50 in assay [1] and in assay [2] were 36 nM and 18 nM, respectively.

In the case of `CC(c1ccc2nccnc2c1)N1C[C@H](C)N(c2cc(=O)n(C)n3cc(CC#N)nc23)C[C@H]1C` (mixture of isomers) [Compound A1, 2-(8-((2S,5R)-2,5-dimethyl-4-(1-(quinoxalin-6-yl)ethyl)piperazin-1-yl)-5-methyl-6-oxo-5,6-dihydroimidazo[1,2-b]pyridazin-2-yl)acetonitrile], the IC50 in assay [1] was 78 nM; in assay [2] it was 2000 nM.

Take `[2H]C([2H])([2H])C(c1ccc2nc(C)sc2c1)N1C[C@H](CC)N(c2cc(=O)n(C([2H])([2H])[2H])n3cc(CC#N)nc23)C[C@H]1CC` (single isomer, unassigned) [Compound A95b]: the IC50 in assay [1] was 1020 nM; in assay [2] it was 1530 nM.

For `CC[C@@H]1CN(c2cc(=O)n(C)n3cc(C=NOC)nc23)[C@@H](C)CN1C(C)c1ccc2nccnc2c1` (single isomer, unassigned) [Compound A9a], the IC50 in assay [1] worked out at 3150 nM; in assay [2], 739 nM.

Consider `CC[C@@H]1CN(c2cc(=O)n(C)n3cc(CC#N)nc23)[C@@H](C)CN1C(C)c1ccc2nc(C)sc2n1` (single isomer, unassigned) [Compound A84b], for which the IC50 in assay [1] turned out to be 5090 nM; in assay [2] it was 3310 nM.

With `CCC(c1ccc(C2CC2)nc1)N1C[C@H](CC)N(c2cc(=O)n(C)n3cc(CC#N)nc23)C[C@H]1CC` (single isomer, unassigned) [Compound A89a], the IC50 in assay [1] was 73 nM; in assay [2], 171 nM.

`CC[C@@H]1CN(c2cc(=O)n(C)n3cc(C=NOC)nc23)[C@@H](C)CN1C(C)c1ccc2nccnc2c1` (single isomer, unassigned) [Compound A9c]: the IC50 was over 10000 nM in assay [1] and 2170 nM in assay [2].

For the compound `CC[C@H]1CN(C(C)c2ccc(C3CC3)nc2F)[C@H](CC)CN1c1cc(=O)n(C)n2cc(CC#N)nc12` (single isomer, unassigned) [Compound A42a], the values for the IC50 in assay [1] and in assay [2] were 57 nM and 339 nM, respectively.

On to `CC(c1ccc2nccnc2c1)N1C[C@H](C)N(c2cc(=O)n(C)n3cc(CC#N)nc23)C[C@H]1C` (single isomer, unassigned) [Compound A1b], for which the IC50 was over 10000 nM in assay [1] and 2750 nM in assay [2].
